Columns and labels:
[1] = molecular target: T1, DPP-4 (Homo sapiens, UniProt P27487); test: DPP-4 Inhibitor Screening Assay (fluorescence-based, Gly-Pro-AMC substrate); assay type: biochemical; settings: mean ± SD; for inhibition at 100 µM: compound at 100 µM, triplicate; for IC50: five concentrations 10^−1 to 10^−5 µM, read-out: IC50 for DPP-4 inhibition
T1 construct: purchased Cayman Chemicals, Ann Arbor, MI, USA
Description: This assay kit allows DPP-4 measurement using Gly-Pro-Aminomethylcoumarin (AMC) as a fluorogenic substrate. The free AMC group is released through the cleavage of the peptide bond by DPP leading to fluorescence that can be examined using appropriate excitation and emission wavelengths. Briefly, the experiment was performed triplicate in a white flat bottom 96 well plate. Thirty microlitres of assay buffer, 10 µL of DPP-4 enzyme, 10 µL of dimethyl sulfoxide (DMSO), and 50 µL of DPP substrate were added to 100% initial activity wells. Forty microlitres of assay buffer, 10 µL of DMSO, and 50 µL of DPP substrate were added to background wells. Thirty microlitres of assay buffer, 10 µL of DPP-4 enzyme, 10 µL of sample, and 50 µL of DPP substrate were added to inhibitor wells. […] The plate was incubated for 30 min at 37 °C, and fluorescence measurements were analyzed using an excitation wavelength of 360/40 nm and an emission wavelength of 460/40 nm in a multi-mode plate reader (Synergy HTX S1LFA, BioTek Instruments, Winooski, VT, USA). All assays were performed in triplicate. The fluorescence of the background wells was subtracted from all other wells before the calculations. The per cent inhibition was determined by the following formula in equation 1:Inhibition% = [(Initial activity − Inhibitor)/Initial Activity] × 100(1)

[2] = MTT cytotoxicity assay on NIH/3T3 cells; assay type: cell-based; settings: mouse, NIH/3T3 mouse embryonic fibroblast cells, 24 h incubation, 31.25-500 µM, read-out: IC50 cytotoxicity towards NIH/3T3 cell line
Description: NIH/3T3 mouse embryonic fibroblast (normal) cells (ATCC® CRL-1658™) were grown in RPMI 1640 medium (Sigma-Aldrich, St. Louis, MO, USA) supplemented with 2 mM L-glutamine (Gibco, Paisley, UK), 10% fetal bovine serum (Gibco, Paisley, UK) and 1% penicillin/streptomycin (Gibco, Paisley, UK) at 37 °C in a humidified incubator with a 5% CO2 atmosphere. Compounds 2a–o were dissolved in DMSO (Sigma-Aldrich, St. Louis, MO, USA) and diluted to required concentrations with a fresh medium. The control group (solvent control) was prepared with a medium containing 0.1% DMSO. […]
In order to determine IC50 concentrations of compounds 2a–o, cell viability was determined by MTT assay. […] The absorbance values were measured at 540 nm using a Cytation 3 Cell Imaging Multi-Mode Reader (BioTek, Winooski, VT, USA). Cell survival rates were expressed as the percentage of the DMSO (0.1%) solvent control and IC50 concentrations were calculated according to the analysis result.

T1 sequence (P27487 whole entry): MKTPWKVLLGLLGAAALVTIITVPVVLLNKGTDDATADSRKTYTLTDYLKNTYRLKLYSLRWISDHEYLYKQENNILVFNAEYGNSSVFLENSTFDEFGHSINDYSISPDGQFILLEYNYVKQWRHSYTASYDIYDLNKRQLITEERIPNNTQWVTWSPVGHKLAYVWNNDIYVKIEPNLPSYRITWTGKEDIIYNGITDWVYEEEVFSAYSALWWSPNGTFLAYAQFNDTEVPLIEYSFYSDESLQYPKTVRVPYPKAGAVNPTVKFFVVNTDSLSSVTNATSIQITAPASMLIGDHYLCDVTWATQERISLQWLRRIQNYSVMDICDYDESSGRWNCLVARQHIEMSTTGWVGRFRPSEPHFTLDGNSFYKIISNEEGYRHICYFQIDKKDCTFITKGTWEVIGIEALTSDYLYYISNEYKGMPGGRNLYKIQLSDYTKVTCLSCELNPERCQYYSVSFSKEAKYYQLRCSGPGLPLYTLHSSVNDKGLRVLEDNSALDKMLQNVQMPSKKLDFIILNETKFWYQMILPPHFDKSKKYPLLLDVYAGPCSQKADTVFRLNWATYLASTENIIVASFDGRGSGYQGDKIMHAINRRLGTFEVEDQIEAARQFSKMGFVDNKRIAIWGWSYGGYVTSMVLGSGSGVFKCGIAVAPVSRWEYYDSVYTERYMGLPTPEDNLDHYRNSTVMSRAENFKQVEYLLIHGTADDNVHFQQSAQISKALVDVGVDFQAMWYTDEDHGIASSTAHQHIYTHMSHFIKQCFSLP

Row | inhibition at 100 µM [1] [%] | IC50 [1] [nM] | Structure (SMILES) | IC50 at 24 h [2] [nM]
1 | 47.4 ± 1.29 | – | CC(C)c1ccc(/C=N/NC(=S)Nc2ccc(-n3cccn3)cc2)cc1 [Compound 2m, [4-(1H-Pyrazol-1-yl)phenyl]-1-(4-isopropylbenzylidene)thiosemicarbazide] | –
2 | 57.3 ± 1.04 | – | CN(C)c1ccc(/C=N/NC(=S)Nc2ccc(-n3cccn3)cc2)cc1 [Compound 2l, [4-(1H-Pyrazol-1-yl)phenyl]-1-(4-dimethylaminobenzylidene)thiosemicarbazide] | –
3 | 53.2 ± 3.1 | – | Cc1ccc(/C=N/NC(=S)Nc2ccc(-n3cccn3)cc2)cc1 [Compound 2h, [4-(1H-Pyrazol-1-yl)phenyl]-1-(4-methylbenzylidene)thiosemicarbazide] | –
4 | 38.4 ± 2.14 | – | S=C(N/N=C/c1ccc(Cl)cc1)Nc1ccc(-n2cccn2)cc1 [Compound 2e, [4-(1H-Pyrazol-1-yl)phenyl]-1-(4-chlorobenzylidene)thiosemicarbazide] | –
5 | 27.3 ± 2.03 | – | Fc1ccc(/C=N/NC(=S)Nc2ccc(-n3cccn3)cc2)cc1 [Compound 2d, [4-(1H-Pyrazol-1-yl)phenyl]-1-(4-fluorobenzylidene)thiosemicarbazide] | –
6 | – | 1.27 ± 0.264 | S=C(NN=Cc1ccc(Br)cc1)Nc1ccc(-n2cccn2)cc1 [Compound 2f, 4-[4-(1H-pyrazol-1-yl)phenyl]-1-(4-bromobenzylidene)thiosemicarbazide] | > 500000

More lines, now with the values behind:

Row | Structure (SMILES) | inhibition at 100 µM [1] [%] | IC50 [1] [nM] | IC50 at 24 h [2] [nM]
7 | S=C(N/N=C/c1ccccc1)Nc1ccc(-n2cccn2)cc1 [Compound 2a, [4-(1H-Pyrazol-1-yl)phenyl]-1-(benzylidene)thiosemicarbazide] | 20.7 ± 1.82 | – | –
8 | N#Cc1ccc(/C=N/NC(=S)Nc2ccc(-n3cccn3)cc2)cc1 [Compound 2c, [4-(1H-Pyrazol-1-yl)phenyl]-1-(4-cyanobenzylidene)thiosemicarbazide] | 28 ± 1.63 | – | –
9 | O=[N+]([O-])c1ccc(/C=N/NC(=S)Nc2ccc(-n3cccn3)cc2)cc1 [Compound 2b, [4-(1H-Pyrazol-1-yl)phenyl]-1-(4-nitrobenzylidene)thiosemicarbazide] | 35.5 ± 1.75 | – | –
10 | CSc1ccc(/C=N/NC(=S)Nc2ccc(-n3cccn3)cc2)cc1 [Compound 2k, [4-(1H-Pyrazol-1-yl)phenyl]-1-(4-methylthiobenzylidene)thiosemicarbazide] | > 60 | 22.7 ± 0.301 | –
11 | FC(F)(F)c1ccc(/C=N/NC(=S)Nc2ccc(-n3cccn3)cc2)cc1 [Compound 2g, [4-(1H-Pyrazol-1-yl)phenyl]-1-(4-trifluoromethylbenzylidene)thiosemicarbazide] | > 60 | 4.78 ± 0.296 | –
12 | CS(=O)(=O)c1ccc(/C=N/NC(=S)Nc2ccc(-n3cccn3)cc2)cc1 [Compound 2j, [4-(1H-Pyrazol-1-yl)phenyl]-1-(4-methylsulfonylbenzylidene)thiosemicarbazide] | 59.8 ± 1.13 | – | –
13 | CC(C)(C)c1ccc(/C=N/NC(=S)Nc2ccc(-n3cccn3)cc2)cc1 [Compound 2n, [4-(1H-Pyrazol-1-yl)phenyl]-1-(4-tert-butylbenzylidene)thiosemicarbazide] | 28.6 ± 1.76 | – | –
14 | COc1ccc(/C=N/NC(=S)Nc2ccc(-n3cccn3)cc2)cc1 [Compound 2i, [4-(1H-Pyrazol-1-yl)phenyl]-1-(4-methoxybenzylidene)thiosemicarbazide] | > 60 | 43.31 ± 0.372 | –
15 | S=C(N/N=C/c1ccc(-c2ccccc2)cc1)Nc1ccc(-n2cccn2)cc1 [Compound 2o, [4-(1H-Pyrazol-1-yl)phenyl]-1-(4-phenylbenzylidene)thiosemicarbazide] | > 60 | 18.1 ± 0.311 | –

From article PMC7662656, “Pyrazole Incorporated New Thiosemicarbazones: Design, Synthesis and Investigation of DPP-4 Inhibitory Effects” (Molecules, 2020)
